# Data: publication PMC7655827, “NeoR, a near-infrared absorbing rhodopsin” (Nature Communications, 2020)
# Legend:
# Type in all cases: binding
# [1] = target: T1, NeoR (RGC3), rhodopsin fragment (Rhizoclosmatium globosum, UniProt A0A1Y2CSJ0, E136Q); experiment: UV-Vis absorption and fluorescence of purified protein; settings: 50 mM HEPES pH 7.4, 200 mM NaCl, 0.02% DDM/0.004% CHS; covalent (retinal Schiff base)
# T1 construct: gene BCR33DRAFT_847233; rhodopsin domain aa 1-279; C-terminal strepII tag (Sf21) or C-terminal 1D4 tag TETSQVAPA (HEK-T, mutants)
# T1 sequence (A0A1Y2CSJ0 entry or part of it E136Q): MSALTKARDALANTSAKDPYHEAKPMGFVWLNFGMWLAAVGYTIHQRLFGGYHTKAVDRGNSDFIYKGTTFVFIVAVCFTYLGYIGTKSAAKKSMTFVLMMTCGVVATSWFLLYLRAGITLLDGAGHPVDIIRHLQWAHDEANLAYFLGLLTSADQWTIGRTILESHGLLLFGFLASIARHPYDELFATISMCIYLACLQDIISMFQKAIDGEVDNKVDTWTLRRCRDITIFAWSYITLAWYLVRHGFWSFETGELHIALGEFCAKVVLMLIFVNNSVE
# [2] = target: T2, NeoR (RGC3), rhodopsin fragment (Rhizoclosmatium globosum, UniProt A0A1Y2CSJ0, S191A); experiment: as above; settings: 50 mM HEPES pH 7.4, 200 mM NaCl, 0.02% DDM/0.004% CHS; covalent (retinal Schiff base)
# T2 construct: gene BCR33DRAFT_847233; rhodopsin domain aa 1-279; C-terminal strepII tag (Sf21) or C-terminal 1D4 tag TETSQVAPA (HEK-T, mutants)
# T2 sequence (A0A1Y2CSJ0 entry or part of it S191A): as the sequence (A0A1Y2CSJ0 entry or part of it E136Q) above, with Q136E, S191A counted along it
# [3] = target: T3, NeoR (RGC3), rhodopsin fragment (Rhizoclosmatium globosum, UniProt A0A1Y2CSJ0, E262Q); experiment: as above; settings: 50 mM HEPES pH 7.4, 200 mM NaCl, 0.02% DDM/0.004% CHS; covalent (retinal Schiff base)
# T3 construct: gene BCR33DRAFT_847233; rhodopsin domain aa 1-279; C-terminal strepII tag (Sf21) or C-terminal 1D4 tag TETSQVAPA (HEK-T, mutants)
# T3 sequence (A0A1Y2CSJ0 entry or part of it E262Q): as the sequence (A0A1Y2CSJ0 entry or part of it E136Q) above, with Q136E, E262Q counted along it
# [4] = target: T4, NeoR (RGC3), rhodopsin fragment (Rhizoclosmatium globosum, UniProt A0A1Y2CSJ0, T238A); experiment: as above; settings: 50 mM HEPES pH 7.4, 200 mM NaCl, 0.02% DDM/0.004% CHS; covalent (retinal Schiff base)
# T4 construct: gene BCR33DRAFT_847233; rhodopsin domain aa 1-279; C-terminal strepII tag (Sf21) or C-terminal 1D4 tag TETSQVAPA (HEK-T, mutants)
# T4 sequence (A0A1Y2CSJ0 entry or part of it T238A): as the sequence (A0A1Y2CSJ0 entry or part of it E136Q) above, with Q136E, T238A counted along it
# [5] = target: T5, NeoR (RGC3), rhodopsin fragment (Rhizoclosmatium globosum, UniProt A0A1Y2CSJ0, T238P); experiment: as above; settings: 50 mM HEPES pH 7.4, 200 mM NaCl, 0.02% DDM/0.004% CHS; covalent (retinal Schiff base)
# T5 construct: gene BCR33DRAFT_847233; rhodopsin domain aa 1-279; C-terminal strepII tag (Sf21) or C-terminal 1D4 tag TETSQVAPA (HEK-T, mutants)
# T5 sequence (A0A1Y2CSJ0 entry or part of it T238P): as the sequence (A0A1Y2CSJ0 entry or part of it E136Q) above, with Q136E, T238P counted along it
# [6] = target: T6, NeoR (RGC3), rhodopsin fragment (Rhizoclosmatium globosum, UniProt A0A1Y2CSJ0); experiment: as above; settings: 50 mM HEPES pH 7.4, 200 mM NaCl, 0.02% DDM/0.004% CHS; covalent (retinal Schiff base)
# T6 construct: gene BCR33DRAFT_847233; rhodopsin domain aa 1-279; C-terminal strepII tag (Sf21) or C-terminal 1D4 tag TETSQVAPA (HEK-T, mutants)
# [7] = target: T7, NeoR full-length protein (Rhizoclosmatium globosum, UniProt A0A1Y2CSJ0); experiment: UV-Vis absorption of purified protein; settings: detergent; covalent (retinal Schiff base)
# T7 construct: gene BCR33DRAFT_847233; full length aa 1-509, C-terminal His(8) tag, Sf21 insect cells
# T7 sequence (A0A1Y2CSJ0 1-509): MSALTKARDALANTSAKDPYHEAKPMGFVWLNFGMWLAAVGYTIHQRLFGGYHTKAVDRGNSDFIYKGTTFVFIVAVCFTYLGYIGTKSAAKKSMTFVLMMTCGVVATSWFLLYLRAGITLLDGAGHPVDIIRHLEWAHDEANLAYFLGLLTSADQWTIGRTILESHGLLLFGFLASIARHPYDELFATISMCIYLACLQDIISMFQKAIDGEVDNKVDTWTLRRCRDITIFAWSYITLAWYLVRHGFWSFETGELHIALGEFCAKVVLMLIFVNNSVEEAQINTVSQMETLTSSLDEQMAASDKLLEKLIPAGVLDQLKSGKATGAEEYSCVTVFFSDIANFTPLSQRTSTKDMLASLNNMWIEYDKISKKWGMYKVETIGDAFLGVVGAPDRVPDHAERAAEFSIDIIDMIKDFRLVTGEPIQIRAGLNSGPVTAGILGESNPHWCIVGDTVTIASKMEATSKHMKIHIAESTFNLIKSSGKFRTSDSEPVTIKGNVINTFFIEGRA
compound,measurement,setting,value
CC1=C(/C=C/C(C)=C/C=C/C(C)=C/C=O)C(C)(C)CCC1 [all-trans retinal],UV-Vis absorption and fluorescence of purified protein,[1],Mutation of either one of these to Gln results in chromophore deprotonation
same,UV-Vis absorption and fluorescence of purified protein,[2],"achieved by mutation of S191A and T238P/A, which are located near the β-ionone ring"
same,UV-Vis absorption and fluorescence of purified protein,[3],Mutation of either one of these to Gln results in chromophore deprotonation
same,UV-Vis absorption and fluorescence of purified protein,[4],"achieved by mutation of S191A and T238P/A, which are located near the β-ionone ring"
same,UV-Vis absorption and fluorescence of purified protein,[5],"achieved by mutation of S191A and T238P/A, which are located near the β-ionone ring"
same,UV-Vis absorption and fluorescence of purified protein,[6],in the absence of retinal no functional rhodopsin was produced when recombinant NeoR was expressed
same,UV-Vis absorption of purified protein,[7],The spectral properties are similar for the NeoR full-length protein and the rhodopsin fragment
